Data as given in US11766440B1, “Methods for the prevention and treatment of hearing loss” (Ting Therapeutics LLC, priority 2020, dated 2023).
Where a name gives a salt, the structure may show the parent alone. Read-outs that look alike come from different tables or passages of the source.

Key:
JAK3 = biological target: T1, JAK3 (Homo sapiens, UniProt P52333); conditions: cited from earlier work
T1 sequence (P52333 1-1124): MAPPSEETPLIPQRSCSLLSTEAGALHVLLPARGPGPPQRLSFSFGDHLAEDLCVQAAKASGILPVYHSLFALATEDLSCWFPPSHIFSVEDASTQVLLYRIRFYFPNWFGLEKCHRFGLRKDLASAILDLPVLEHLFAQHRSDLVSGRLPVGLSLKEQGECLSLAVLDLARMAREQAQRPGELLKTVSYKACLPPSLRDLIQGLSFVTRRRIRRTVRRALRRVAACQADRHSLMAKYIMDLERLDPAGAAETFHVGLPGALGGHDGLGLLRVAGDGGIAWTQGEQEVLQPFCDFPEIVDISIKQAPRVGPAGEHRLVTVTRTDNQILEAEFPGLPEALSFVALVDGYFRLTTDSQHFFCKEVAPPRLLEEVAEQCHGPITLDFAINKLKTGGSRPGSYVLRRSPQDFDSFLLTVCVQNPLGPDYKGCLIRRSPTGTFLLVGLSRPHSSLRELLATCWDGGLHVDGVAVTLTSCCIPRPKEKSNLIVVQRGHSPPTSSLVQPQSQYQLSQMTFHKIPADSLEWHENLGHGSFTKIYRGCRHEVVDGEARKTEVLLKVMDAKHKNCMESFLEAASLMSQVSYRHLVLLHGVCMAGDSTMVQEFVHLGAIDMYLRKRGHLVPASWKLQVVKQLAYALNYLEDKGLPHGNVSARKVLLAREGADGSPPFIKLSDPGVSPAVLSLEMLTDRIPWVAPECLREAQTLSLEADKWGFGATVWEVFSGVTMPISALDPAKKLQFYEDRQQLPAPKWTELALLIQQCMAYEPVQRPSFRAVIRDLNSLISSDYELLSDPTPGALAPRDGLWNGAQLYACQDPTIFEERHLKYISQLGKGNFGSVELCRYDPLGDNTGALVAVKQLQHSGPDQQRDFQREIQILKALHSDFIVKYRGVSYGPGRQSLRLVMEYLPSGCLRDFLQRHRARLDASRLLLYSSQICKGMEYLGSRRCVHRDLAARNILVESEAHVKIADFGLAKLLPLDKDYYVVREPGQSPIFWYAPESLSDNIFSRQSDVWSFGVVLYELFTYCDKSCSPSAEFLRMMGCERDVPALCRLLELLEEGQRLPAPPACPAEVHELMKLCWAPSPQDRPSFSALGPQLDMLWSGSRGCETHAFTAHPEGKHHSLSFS

JAK1 = JAK1 (Homo sapiens, UniProt P23458); conditions: cited from earlier work
JAK1, sequence (P23458 whole entry, species assumed): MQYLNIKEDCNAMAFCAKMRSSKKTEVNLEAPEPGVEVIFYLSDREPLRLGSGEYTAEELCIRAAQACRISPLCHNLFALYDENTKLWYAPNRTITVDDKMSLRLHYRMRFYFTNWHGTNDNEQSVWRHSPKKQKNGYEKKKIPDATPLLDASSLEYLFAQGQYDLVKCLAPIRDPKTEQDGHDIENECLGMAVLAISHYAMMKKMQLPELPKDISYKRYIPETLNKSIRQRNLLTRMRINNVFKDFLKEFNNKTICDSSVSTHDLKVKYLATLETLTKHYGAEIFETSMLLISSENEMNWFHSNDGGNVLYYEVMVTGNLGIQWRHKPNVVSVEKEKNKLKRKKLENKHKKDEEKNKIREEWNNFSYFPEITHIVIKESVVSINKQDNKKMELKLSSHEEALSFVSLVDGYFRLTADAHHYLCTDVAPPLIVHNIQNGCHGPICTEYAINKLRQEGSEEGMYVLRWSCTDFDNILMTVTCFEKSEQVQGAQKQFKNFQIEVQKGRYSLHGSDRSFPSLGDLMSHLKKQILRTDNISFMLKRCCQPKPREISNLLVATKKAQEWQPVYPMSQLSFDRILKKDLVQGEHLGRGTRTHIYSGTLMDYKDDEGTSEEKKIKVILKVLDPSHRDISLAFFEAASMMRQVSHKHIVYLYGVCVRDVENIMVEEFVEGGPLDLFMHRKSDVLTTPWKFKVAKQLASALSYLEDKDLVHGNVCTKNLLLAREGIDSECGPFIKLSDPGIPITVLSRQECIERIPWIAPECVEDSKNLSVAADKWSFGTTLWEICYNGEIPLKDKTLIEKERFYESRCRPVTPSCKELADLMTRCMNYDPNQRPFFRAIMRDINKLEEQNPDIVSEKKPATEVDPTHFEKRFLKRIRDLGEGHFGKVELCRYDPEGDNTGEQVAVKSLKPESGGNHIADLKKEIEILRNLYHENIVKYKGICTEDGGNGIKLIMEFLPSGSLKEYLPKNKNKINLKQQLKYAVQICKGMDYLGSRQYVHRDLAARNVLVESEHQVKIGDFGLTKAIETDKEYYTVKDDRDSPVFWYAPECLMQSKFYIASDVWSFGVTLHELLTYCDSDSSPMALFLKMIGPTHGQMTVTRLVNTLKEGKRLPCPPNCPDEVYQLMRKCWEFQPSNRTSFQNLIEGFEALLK

JAK2 = JAK2 (Homo sapiens, UniProt O60674); conditions: cited from earlier work
JAK2, sequence (O60674 whole entry, species assumed): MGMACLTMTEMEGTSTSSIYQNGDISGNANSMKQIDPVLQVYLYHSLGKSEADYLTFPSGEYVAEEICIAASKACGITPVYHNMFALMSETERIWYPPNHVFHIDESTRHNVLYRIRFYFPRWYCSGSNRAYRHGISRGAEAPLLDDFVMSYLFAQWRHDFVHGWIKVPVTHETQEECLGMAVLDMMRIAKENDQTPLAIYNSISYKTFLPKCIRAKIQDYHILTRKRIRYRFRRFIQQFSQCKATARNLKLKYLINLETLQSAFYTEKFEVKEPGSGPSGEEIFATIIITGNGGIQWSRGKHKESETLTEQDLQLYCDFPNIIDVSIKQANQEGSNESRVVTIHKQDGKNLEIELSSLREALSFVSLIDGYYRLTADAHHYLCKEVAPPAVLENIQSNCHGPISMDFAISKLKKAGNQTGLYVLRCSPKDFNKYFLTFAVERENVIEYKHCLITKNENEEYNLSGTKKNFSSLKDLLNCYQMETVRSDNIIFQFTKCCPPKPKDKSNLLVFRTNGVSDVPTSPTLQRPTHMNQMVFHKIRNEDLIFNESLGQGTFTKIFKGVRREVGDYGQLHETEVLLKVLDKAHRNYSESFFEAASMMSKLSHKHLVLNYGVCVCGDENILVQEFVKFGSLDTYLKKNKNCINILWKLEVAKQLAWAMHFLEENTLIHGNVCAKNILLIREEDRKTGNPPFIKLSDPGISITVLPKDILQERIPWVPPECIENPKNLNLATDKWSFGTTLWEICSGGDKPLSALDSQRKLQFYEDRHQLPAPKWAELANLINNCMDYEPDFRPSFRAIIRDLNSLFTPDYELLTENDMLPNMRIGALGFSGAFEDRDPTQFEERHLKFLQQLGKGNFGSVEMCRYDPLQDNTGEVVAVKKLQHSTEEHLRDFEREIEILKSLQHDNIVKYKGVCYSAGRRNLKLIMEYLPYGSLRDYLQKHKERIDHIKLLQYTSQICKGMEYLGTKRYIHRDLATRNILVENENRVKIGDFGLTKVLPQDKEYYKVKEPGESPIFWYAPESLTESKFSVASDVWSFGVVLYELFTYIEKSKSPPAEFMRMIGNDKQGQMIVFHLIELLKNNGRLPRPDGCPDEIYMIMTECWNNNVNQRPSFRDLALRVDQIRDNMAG

TYK2 = TYK2 (Homo sapiens, UniProt P29597); conditions: cited from earlier work
TYK2, sequence (P29597 whole entry): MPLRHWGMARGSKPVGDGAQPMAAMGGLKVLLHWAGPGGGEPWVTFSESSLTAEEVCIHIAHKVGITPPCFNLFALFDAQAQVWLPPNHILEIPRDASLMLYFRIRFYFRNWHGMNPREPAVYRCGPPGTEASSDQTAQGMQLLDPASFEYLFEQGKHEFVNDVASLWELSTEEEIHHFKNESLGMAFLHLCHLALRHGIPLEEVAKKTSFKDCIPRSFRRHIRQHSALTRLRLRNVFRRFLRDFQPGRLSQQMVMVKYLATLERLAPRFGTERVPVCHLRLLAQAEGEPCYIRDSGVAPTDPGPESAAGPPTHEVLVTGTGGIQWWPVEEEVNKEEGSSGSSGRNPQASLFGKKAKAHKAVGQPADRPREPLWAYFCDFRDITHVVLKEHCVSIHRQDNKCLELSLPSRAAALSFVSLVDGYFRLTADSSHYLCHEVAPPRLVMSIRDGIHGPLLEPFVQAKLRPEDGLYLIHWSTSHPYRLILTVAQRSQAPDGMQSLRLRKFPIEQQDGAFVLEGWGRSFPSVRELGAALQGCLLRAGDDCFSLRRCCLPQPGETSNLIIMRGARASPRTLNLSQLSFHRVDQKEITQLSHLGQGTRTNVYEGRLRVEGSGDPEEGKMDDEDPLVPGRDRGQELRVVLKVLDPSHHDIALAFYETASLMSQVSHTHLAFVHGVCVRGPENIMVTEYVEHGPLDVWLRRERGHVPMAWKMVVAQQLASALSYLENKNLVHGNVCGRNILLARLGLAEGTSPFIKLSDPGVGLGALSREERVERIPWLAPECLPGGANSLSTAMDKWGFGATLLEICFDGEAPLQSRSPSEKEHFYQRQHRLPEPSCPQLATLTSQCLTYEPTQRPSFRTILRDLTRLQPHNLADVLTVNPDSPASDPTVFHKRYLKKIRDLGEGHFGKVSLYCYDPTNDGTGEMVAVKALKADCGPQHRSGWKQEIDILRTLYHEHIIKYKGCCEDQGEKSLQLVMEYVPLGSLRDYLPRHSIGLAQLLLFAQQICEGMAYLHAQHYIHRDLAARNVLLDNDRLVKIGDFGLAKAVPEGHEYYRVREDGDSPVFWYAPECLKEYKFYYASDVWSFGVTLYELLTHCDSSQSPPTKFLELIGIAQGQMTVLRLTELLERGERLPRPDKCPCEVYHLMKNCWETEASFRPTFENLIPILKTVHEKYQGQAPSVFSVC

[1] = system: zebrafish lateral line neuromast hair cells; test: Zebrafish lateral line neuromast hair cell counts after aminoglycoside; type: in vivo, Danio rerio; conditions: 5dpf larvae, 1 hour pre-incubation 0.002-13.3 μM
Method: . Each treatment was pretreated with MMB at the prescribed doses prior to co-treatment with the aminoglycoside. Control animal were treated with DMSO (−) or KM or GM alone (+) Animals were then fixed and immunostained for GFP and otoferlin. Quantification was done by assessing three neuromasts in the same anatomic location of each animal (n=5). The data is plotted as mean+SD. Statistical testing was done with One-way ANOVA and Dunnett post-hoc test (*P<0.05, **P<0.01,***P<0.001).
FIG. 4A-B show Fedratinib (FED) protected zebrafish mechanosensory hair cells against kanamycin (KM) in vivo. 5dpf Tg(Brn3c:mGFP) larvae were used for the experiments. Each treatment was pretreated FED at the prescribed doses prior to co-treatment with the aminoglycoside. […] Control animal were treated with DMSO (−) or KM alone (+) Animals were then fixed and immunostained for GFP and otoferlin. Quantification was done by assessing three neuromasts in the same anatomic location of each animal (n=5). […]
These two markers were used to detect and count neuromast HCs to reduce the chances of missing some of the HCs after the treatment since we previously noticed that incubation with the compounds can affect GFP expression more difficult to detect under a fluorescence microscope (26). […] Compounds were then evaluated on efficiency and potency, with the top-rated compounds showing high protection at lower concentrations. […]

[2] = system: outer hair cells of cochlear explants of P3 FVB mice; test: Outer hair cell survival in whole-mount cochlear explants treated with aminoglycosides; type: cell-based, mouse
Method: A) Representative confocal images of the middle turn of whole-mount cochlear explants from P3 FVB mice treated with medium alone, […] gentamicin, 0.2 μM Momelotinib and […] gentamicin for 24 h. […] HCs are labeled with phalloidin. […] (Mann-Whitney U Test, *P<0.05, **P<0.01) shown in a micromolar concentration.
Now referring to FIG. 2A-B, Momelotinib protects from aminoglycoside toxicity in cochlear explants of P3 FVB mice. FVB mice were bred in the Creighton University animal facility. Procedures were approved by the IACUC committee of the Creighton University. 2A) Inner ears were collected from the post-natal day 3 (P3) FVB mice and transferred onto a filter (Millicell, PICM03050; Millipore) soaked in culturing medium. The filter was placed in 6-well culture plates with 1.2 mL medium outside the filter. The culturing medium is DMEM (10565-018; gibco) with 1% FBS (16000-044; gibco), 500 μL ampicillin (A5354; Sigma), 100 μL N-2 supplement (17502-048, gibco) and 100 μL B-27 supplement (17504-044, gibco). After culturing for 24 h at 37° C. in 5% CO2, 1 mL culturing medium with MMB at 0.2 μM, […] MMB alone or without MMB and added both inside and outside the filter to preincubate for another 1 h before adding gentamicin solution. A 50 μg/mL gentamicin (G1397, Sigma) was chosen to induce around 35% hair cell death after incubation for 24 h at 37° C. For compound CYT-387 or MMB (A10263, AdooQ). The procedures were performed under sterile condition in the culture hood. Cochleae were then fixed with 4% PFA for 30 min and stained with Alexa Fluor 555 phalloidin in to determine the survival rate of the hair cells. All the cochleae images were taken with Zeiss 700 confocal microscopy. […] The survival OHCs were then normalized to 100 μm length to further compare between different experimental conditions. 2B) OHC survival (OHC number per 100 μm length of cochlear middle turn) after treatment with Momelotinib at 0.0016, 0.008, 0.04, 0.2, 1.0, 5.0, 10.0 and 20.0 μM for 1 hour and co-incubated with 100 μM GM for 1 hour, or co-incubated with 600 μM kanamycin (K0254, Sigma) for 1 hour. […]

[3] = 14-day oral toxicity and auditory brainstem response (ABR) thresholds in mice; type: in vivo, C57BL/6 mice
Method: Auditory brainstem response (ABR) thresholds were recorded for 3 frequencies (8 kHz, 16 kHz, and 32 kHz) before and after a 14-day MMB treatment protocol. […] Statistical analysis was done with repeated measures ANOVA between groups.
4-week-old C57BL/6 mice obtained from The Jackson Laboratory were used, with a mix of males and females across experiments. Mice were administered a 14-day Momelotinib treatment protocol. Auditory Brainstem Response thresholds were recorded at 8 kHz, 16 kHz, and 32 kHz for a baseline sample of mice and the mice administered Momelotinib.

EGFR kinase = EGFR kinase (Homo sapiens, UniProt P00533); conditions: measured value; read-out: IC50 in EGFR kinase inhibition assays; cited from earlier work
EGFR kinase, sequence (P00533 25-1210): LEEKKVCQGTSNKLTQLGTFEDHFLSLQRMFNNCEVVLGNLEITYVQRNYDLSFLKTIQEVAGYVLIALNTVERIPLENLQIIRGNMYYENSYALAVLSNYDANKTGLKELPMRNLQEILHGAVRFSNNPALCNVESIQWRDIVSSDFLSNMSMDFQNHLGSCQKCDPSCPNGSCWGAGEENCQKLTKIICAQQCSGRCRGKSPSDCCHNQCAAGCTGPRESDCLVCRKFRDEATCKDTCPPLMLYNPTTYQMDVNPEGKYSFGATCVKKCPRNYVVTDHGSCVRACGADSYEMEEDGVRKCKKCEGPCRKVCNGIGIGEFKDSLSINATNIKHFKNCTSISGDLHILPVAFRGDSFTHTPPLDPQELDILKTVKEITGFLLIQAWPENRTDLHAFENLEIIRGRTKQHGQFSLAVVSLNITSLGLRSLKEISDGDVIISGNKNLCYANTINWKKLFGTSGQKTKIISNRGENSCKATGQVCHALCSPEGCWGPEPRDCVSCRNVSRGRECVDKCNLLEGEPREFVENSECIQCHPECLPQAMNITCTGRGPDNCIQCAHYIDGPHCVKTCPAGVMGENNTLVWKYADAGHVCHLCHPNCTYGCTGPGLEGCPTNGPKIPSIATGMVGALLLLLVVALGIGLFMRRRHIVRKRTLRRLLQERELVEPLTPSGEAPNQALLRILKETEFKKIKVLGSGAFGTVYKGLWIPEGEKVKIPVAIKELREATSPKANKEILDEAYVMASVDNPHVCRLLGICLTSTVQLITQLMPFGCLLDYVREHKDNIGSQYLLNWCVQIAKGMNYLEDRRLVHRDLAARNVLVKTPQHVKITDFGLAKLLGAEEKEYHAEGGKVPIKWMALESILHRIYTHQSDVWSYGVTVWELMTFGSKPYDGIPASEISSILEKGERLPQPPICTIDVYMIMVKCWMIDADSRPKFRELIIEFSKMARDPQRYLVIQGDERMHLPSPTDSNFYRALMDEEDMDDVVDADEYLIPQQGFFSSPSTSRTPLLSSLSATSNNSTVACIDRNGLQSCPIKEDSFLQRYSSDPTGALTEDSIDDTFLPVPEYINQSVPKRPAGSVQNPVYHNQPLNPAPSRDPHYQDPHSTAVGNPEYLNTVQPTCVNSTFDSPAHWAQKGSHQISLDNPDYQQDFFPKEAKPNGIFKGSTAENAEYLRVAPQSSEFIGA

[4] = system: panel of 38 non-JAK kinases; conditions: cited from earlier work

N#Cc1ccc(COc2ccc(-c3cccc4nc(NC(=O)C5CC5)nn34)cc2)cn1 [GLPG0634 analogue]
IC50 (JAK3): 810 nM
IC50 (JAK1): 10 nM
IC50 (JAK2; cell-free assay for AZD1480 and AT9283): 28 nM
IC50 (TYK2): 116 nM

COc1cc2ncnc(Nc3ccc(O)cc3)c2cc1OC [JANEX-1]
IC50 (JAK3): 78000 nM
activity against JAK1 (JAK1): without altering the activity
activity against JAK2 (JAK2): without altering the activity

N#CCNC(=O)c1ccc(-c2ccnc(Nc3ccc(N4CCOCC4)cc3)n2)cc1 [Momelotinib]
protection of mechanosensory hair cells against gentamicin (GM) ([1]; then GM 100 uM for 1 hour): protected
protection of mechanosensory hair cells against kanamycin (KM) ([1]; then KM 200 or 300 uM for 1 hour or 150 uM for 6 hours): protected
toxicity to HCs of compound alone ([2]; 0.2 μM Momelotinib alone, cochlear explants): did not show toxicity
hair cell loss at the middle turn region (phalloidin images) ([2]; cotreated with MMB 0.2 μM and gentamicin (GM), 24 h, P3 FVB cochlear explants): minimal levels of hair cell loss
protection against aminoglycoside-induced hair cell loss (OHC number per 100 μm length of cochlear middle turn) ([2]; cotreatment with Momelotinib and gentamicin or kanamycin, n=5 per group): full protection
inner ear toxicity: ABR thresholds before and after treatment ([3]; 8 kHz, 16 kHz and 32 kHz, 14-day Momelotinib protocol): No differences
general toxicity in vivo ([3]; oral, up to 100 mg/kg/day over a 14-day regimen, 4-week-old C57BL/6 mice): not toxic

NC(=O)c1nc(-c2c(F)cccc2Cl)oc1Nc1ccc(C(=O)N2CCOCC2)cc1 [SAR-20347]
IC50 (JAK3; cell-free assay for AT9283): 41 nM
IC50 (JAK1): 23 nM
IC50 (TYK2): 0.6 nM

CC1(C)CN(C(=O)c2ccc(-c3cccc4nc(NC(=O)C5CC5)nn34)cc2)C1 [Solcitinib]
selectivity for JAK1 over JAK3 (JAK3): 55 fold
IC50 (JAK1): 8 to 9 nM
selectivity for JAK1 over JAK2 (JAK2): 11 fold
selectivity for JAK1 over TYK2 (TYK2): 23 fold

COc1cc2ncnc(Nc3cc(Br)c(O)c(Br)c3)c2cc1OC [WHI-P97]
IC50 (EGFR kinase): 2500 nM

COc1cc2ncnc(Nc3ccc(O)c(Br)c3)c2cc1OC [WHI-P154]
activity against JAK1 (JAK1): no activity
activity against JAK2 (JAK2): no activity

CC(C)N(CCC(=O)c1ccc2ccccc2c1)Cc1ccccc1 [ZM 39923 HCl]
activity against JAK2 (JAK2): almost no activity

Oclacitinib maleate
inhibition of a panel of 38 non-JAK kinases [4]: does not inhibit
